Assay results from ChEMBL document CHEMBL1152247, “Identification of novel inhibitors of extracellular signal-regulated kinase 2 based on the structure-based virtual screening” (Bioorg Med Chem Lett, 2008).

Tests used:
[1] = target: Mitogen-activated protein kinase 14 (Homo sapiens) (UniProt Q16539); assay: Inhibition of p38-alpha at 100 uM
[2] = target: T1, Mitogen-activated protein kinase 1 (Homo sapiens, UniProt P28482); assay: Inhibition of recombinant ERK2
[3] = target: T1, Mitogen-activated protein kinase 1; assay: Inhibition of recombinant ERK2 at 100 uM

T1 sequence (P28482 whole entry): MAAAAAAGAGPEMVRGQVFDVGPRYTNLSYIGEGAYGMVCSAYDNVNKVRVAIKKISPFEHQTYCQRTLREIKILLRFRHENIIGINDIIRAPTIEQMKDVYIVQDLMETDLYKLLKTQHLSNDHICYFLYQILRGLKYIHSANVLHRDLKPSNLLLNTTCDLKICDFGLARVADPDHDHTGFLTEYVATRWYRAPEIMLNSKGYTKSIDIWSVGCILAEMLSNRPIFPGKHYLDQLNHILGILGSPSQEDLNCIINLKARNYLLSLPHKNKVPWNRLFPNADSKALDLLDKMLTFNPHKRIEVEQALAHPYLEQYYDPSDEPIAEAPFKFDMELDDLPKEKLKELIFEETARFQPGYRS
Mitogen-activated protein kinase 14 (Homo sapiens), sequence (Q16539 whole entry): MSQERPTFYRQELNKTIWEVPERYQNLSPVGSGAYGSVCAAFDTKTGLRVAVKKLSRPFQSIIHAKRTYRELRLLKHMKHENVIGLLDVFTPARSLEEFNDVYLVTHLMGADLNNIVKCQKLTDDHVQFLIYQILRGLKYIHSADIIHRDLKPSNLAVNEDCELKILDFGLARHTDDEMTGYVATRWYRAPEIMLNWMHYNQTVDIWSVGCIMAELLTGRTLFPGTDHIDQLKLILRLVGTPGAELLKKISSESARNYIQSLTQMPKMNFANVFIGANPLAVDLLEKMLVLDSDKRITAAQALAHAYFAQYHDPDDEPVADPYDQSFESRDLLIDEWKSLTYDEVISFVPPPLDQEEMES

Compound | inhibition [1] [%] | IC50 [2] [µM] | inhibition [3] [%]
Cc1ccc(COc2ccc(-c3n[nH]cc3-c3ccccc3)c(O)c2)cc1 | 12.3 | 16.9 | 87.9
O=C(Nc1nc(NC(=O)c2ccccc2)n(-c2ccccc2)n1)c1ccccc1 | 24.5 | 8.3 | 93.1
O=C(Nc1nc(NC(=O)c2ccco2)n(-c2ccccc2)n1)c1ccccc1 | – | 18.3 | –
O=C1/C(=C/C=C/c2ccccc2)SC(=S)N1Cc1ccc2c(c1)OCO2 | – | 23.7 | –
O=C(/C=C/c1ccccc1)Nc1nc(NC(=O)c2ccccc2)nn1-c1ccccc1 | – | 25.6 | –
O=C1/C(=C/c2ccc(O)cc2)SC(=S)N1Cc1ccccc1 | 16.7 | 5.5 | 92.7
COc1ccccc1-c1c[nH]nc1-c1ccc(OCc2ccccc2F)cc1O | – | 27.4 | –
COc1cc(/C=C2\SC(=S)N(Cc3ccccc3)C2=O)ccc1O | – | 14.3 | –
